Entries after “also recorded” stand apart in the source; their conditions may differ.
Legend:
T2DM mice [1] = test: T2DM mouse model: pancreas islet histology (H&E); type: in vivo, C57BL/6J mice; conditions: DhHP-6 60 mg/kg or metformin 250 mg/kg oral, four weeks
Procedure: (§1) At the end of the experiment, the liver and pancreas islets were immediately removed after the mice were sacrificed. The left lobe of the liver was stored at −80 °C and the right lobe of the liver was fixed in 4% paraformaldehyde (Solarbio & Technology Co., Ltd., Beijing, China). After dehydration in a gradient of ethanol concentrations, tissues were paraffin embedded and cut into 5 μm thick sections. Slices were stained with hematoxylin and eosin (H&E) dyes, and sections were mounted in neutral deparaffinized xylene medium for microscopic examination using an Olympus BX53 fluorescence microscope (Olympus, Tokyo, Japan).

T2DM mice [2] = test: T2DM mouse model: liver histology (H&E); type: in vivo, C57BL/6J mice; conditions: DhHP-6 60 mg/kg or metformin 250 mg/kg oral, four weeks
Procedure: as §1

[3] = Procedure: As a peroxidase mimetic, the enzymatic potency of the digestion products of DhHP-6 were assessed using the H2O2–Vitamin C (Vc) double-substrate method. Digestion products of DhHP-6 were diluted to 10 μM. Samples containing no enzyme were used as a control. The reaction system consisted of phosphate buffer solution (PBS) (50 mM, pH 7.4), H2O2 (1 mM), Vc ([…]), and 10 μM DhHP-6. All samples were assayed at 25 °C. The decrease in the absorbance at 290 nm was measured for 30 s by UV–Vis spectrophotometer (Shimadzu, Kyoto, Japan), and measurements were performed prior to the addition of the digestion products and set as 100% relative enzymatic activity.
[4] = simulated gastric fluid (SGF), pH 1.2, prepared in accordance with the US Pharmacopeia; conditions: 37 °C, up to 120 min
[5] = blood samples of rats after intravenous injection or intragastric administration; conditions: male Wistar rats, up to 12 h
human plasma = conditions: 37 °C, up to seven days
[6] = simulated intestinal fluid (SIF), pH 6.8 ± 0.1, prepared in accordance with the US Pharmacopeia; conditions: 37 °C, up to 120 min
T2DM rats = test system: T2DM rats; set-up: method as in PMID 24946264; conditions: injected (intraperitoneal injection); cited from earlier work
Text: DhHP-6 (Deuterohemin-βAla-His-Thr-Val-Glu-Lys) was designed based on the microperoxidase-11 (MP-11), generated through […]. […] When ...

CN(C)C(=N)N=C(N)N [metformin, reference compound]
pancreas islet histology, high dose / metformin (T2DM mice [1]): the islets and vacuolar degeneration improved
liver histology, high dose / metformin (T2DM mice [2]): lower levels of steatosis were evident and the liver cells became more regular than T2DM mice

Deuterohemin-βAla-His-Thr [DhHP-3]
relative enzyme activity of the plasma degradation product [3]: retained the relative enzyme activity of DhHP-6

Deuterohemin-βAla-His-Thr-Val-Glu-Lys
fragment found [4]: DhHP-5 (Deuterohemin-βAla-His-Thr-Val-Glu), major
fragment found [5]: DhHP-3, major
fragment found (human plasma): DhHP-3 (Deuterohemin-βAla-His-Thr), major
fragment found [6]: DhHP-5; also recorded: DhHP-2 (Deuterohemin-βAla-His)

deuterohemin-Ala-His-Lys [DhHP-3 (deuterohemin-Ala-His-Lys)]
symptoms of T2DM rats (T2DM rats): improves the symptoms of T2DM rats

Reference: PMC6470840 (International Journal of Molecular Sciences, 2019)
